For ten compounds, inhibition results are on record in ChEMBL document CHEMBL5442219.

Holding throughout (details): Compound concentration 10 µM
Assay [1] concerns the target T1, Alpha-2C adrenergic receptor (Homo sapiens) (UniProt P18825).
T1 sequence (whole entry): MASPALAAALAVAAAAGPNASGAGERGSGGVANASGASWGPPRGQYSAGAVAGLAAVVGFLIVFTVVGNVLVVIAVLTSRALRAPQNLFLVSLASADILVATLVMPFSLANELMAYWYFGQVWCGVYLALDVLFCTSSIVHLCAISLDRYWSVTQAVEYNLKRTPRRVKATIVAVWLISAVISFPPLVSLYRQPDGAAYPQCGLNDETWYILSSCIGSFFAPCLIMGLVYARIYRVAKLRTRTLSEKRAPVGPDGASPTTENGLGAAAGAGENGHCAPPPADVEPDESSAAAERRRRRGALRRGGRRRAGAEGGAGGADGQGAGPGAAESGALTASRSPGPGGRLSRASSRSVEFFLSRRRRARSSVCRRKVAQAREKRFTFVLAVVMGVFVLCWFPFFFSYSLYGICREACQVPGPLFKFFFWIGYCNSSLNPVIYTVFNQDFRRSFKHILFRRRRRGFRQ

Assay [2] deals with Beta-2 adrenergic receptor (Homo sapiens) (UniProt P07550).
Sequence of Beta-2 adrenergic receptor (Homo sapiens) (P07550 whole entry, looked up): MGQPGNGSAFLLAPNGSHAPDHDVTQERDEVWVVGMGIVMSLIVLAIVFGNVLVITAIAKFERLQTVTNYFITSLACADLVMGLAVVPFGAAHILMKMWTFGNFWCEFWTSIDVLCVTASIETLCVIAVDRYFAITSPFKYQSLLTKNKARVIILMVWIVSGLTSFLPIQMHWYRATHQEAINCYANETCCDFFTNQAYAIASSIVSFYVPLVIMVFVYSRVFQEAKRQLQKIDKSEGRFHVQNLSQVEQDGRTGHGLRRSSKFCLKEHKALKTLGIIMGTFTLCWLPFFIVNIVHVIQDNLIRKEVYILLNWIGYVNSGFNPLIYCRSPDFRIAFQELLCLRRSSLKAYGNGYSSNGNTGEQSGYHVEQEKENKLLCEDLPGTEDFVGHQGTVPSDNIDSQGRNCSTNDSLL
Assay [3] concerns the target D(3) dopamine receptor (Homo sapiens) (UniProt P35462).
In assay [4] the target is Histamine H1 receptor (Homo sapiens) (UniProt P35367).
Sequence of Histamine H1 receptor (Homo sapiens) (P35367 whole entry): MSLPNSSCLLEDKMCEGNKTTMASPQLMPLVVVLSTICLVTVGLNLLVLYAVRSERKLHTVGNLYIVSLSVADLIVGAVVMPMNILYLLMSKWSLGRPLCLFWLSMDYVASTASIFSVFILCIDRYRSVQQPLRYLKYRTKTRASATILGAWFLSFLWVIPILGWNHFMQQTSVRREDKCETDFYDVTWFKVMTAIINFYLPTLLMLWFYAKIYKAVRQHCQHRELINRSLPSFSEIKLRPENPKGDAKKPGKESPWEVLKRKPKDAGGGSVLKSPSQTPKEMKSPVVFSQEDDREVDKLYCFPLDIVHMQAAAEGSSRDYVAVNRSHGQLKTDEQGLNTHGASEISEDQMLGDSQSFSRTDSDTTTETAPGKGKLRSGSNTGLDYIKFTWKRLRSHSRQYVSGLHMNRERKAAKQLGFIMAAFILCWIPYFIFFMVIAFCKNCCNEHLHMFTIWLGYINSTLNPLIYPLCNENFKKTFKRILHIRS
The target in assay [5] is Histamine H4 receptor (Homo sapiens) (UniProt Q9H3N8).
Sequence of Histamine H4 receptor (Homo sapiens) (Q9H3N8 whole entry): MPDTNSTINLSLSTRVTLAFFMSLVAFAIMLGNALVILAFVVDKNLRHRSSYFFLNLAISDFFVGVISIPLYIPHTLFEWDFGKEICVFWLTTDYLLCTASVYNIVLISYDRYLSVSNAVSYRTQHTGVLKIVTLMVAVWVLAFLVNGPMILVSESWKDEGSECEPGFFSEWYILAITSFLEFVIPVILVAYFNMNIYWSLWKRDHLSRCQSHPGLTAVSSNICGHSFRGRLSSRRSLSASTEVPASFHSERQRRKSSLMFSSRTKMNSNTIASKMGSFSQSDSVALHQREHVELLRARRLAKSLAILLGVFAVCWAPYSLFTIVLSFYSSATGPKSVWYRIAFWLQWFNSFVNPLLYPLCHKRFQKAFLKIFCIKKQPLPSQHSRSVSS
Assay [6] deals with T2, 5-hydroxytryptamine receptor 1A (Homo sapiens) (UniProt P08908).
T2 sequence (whole entry): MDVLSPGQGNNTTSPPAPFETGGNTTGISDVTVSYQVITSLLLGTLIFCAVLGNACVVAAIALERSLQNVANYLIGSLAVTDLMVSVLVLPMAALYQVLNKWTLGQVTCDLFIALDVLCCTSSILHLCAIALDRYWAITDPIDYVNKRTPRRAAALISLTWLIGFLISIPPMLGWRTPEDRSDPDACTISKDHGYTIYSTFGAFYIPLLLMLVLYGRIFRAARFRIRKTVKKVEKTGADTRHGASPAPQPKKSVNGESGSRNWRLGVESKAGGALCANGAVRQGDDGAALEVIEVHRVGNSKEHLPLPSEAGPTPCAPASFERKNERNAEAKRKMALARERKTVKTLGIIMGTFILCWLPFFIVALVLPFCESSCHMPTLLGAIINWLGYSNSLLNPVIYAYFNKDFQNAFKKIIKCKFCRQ

In assay [7] the target is 5-hydroxytryptamine receptor 1E (Homo sapiens) (UniProt P28566).
Sequence of 5-hydroxytryptamine receptor 1E (Homo sapiens) (P28566 whole entry): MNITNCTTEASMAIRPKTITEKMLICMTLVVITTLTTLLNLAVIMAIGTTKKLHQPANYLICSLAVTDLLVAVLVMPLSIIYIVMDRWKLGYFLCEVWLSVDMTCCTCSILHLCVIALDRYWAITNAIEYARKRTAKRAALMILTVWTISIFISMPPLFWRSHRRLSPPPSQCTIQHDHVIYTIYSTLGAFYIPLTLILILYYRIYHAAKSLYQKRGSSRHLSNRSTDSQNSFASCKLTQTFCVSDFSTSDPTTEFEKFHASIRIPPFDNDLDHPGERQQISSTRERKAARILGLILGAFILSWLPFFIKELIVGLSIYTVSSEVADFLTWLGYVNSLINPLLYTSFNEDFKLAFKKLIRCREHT
For assay [8], the target named is 5-hydroxytryptamine receptor 2A (Homo sapiens) (UniProt P28223).
Sequence of 5-hydroxytryptamine receptor 2A (Homo sapiens) (P28223 whole entry): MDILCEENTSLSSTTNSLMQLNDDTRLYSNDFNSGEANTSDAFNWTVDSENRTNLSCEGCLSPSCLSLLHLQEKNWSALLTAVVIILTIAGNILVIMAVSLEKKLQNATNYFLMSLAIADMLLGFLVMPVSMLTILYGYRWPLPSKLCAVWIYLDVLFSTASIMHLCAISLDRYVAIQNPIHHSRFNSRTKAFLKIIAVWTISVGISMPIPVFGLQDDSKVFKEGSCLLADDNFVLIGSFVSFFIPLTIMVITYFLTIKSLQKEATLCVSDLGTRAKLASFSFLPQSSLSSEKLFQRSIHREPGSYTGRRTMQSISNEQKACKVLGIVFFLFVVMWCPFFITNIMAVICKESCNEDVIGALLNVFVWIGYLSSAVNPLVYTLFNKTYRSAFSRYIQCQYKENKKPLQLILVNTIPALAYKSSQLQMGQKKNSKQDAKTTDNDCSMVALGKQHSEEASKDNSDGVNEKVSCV
Assay [9] addresses 5-hydroxytryptamine receptor 2B (Homo sapiens) (UniProt P41595).
In assay [10] the target is Kappa-type opioid receptor (Homo sapiens) (UniProt P41145).
Sequence of Kappa-type opioid receptor (Homo sapiens) (P41145 whole entry): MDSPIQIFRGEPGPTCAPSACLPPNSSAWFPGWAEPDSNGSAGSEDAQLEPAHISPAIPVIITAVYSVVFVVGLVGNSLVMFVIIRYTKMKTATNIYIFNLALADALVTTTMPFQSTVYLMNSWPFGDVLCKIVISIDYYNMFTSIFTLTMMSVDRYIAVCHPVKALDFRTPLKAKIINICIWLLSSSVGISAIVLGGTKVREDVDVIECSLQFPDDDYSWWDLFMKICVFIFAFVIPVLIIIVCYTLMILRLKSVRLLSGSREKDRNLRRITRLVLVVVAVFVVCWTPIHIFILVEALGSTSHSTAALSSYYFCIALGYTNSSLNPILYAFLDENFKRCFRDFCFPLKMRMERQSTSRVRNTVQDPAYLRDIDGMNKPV
Assay [11] has as its target Sigma intracellular receptor 2 (Homo sapiens) (UniProt Q5BJF2).
For assay [12], the target named is Translocator protein (Homo sapiens) (UniProt P30536).
Sequence of Translocator protein (Homo sapiens) (P30536 whole entry): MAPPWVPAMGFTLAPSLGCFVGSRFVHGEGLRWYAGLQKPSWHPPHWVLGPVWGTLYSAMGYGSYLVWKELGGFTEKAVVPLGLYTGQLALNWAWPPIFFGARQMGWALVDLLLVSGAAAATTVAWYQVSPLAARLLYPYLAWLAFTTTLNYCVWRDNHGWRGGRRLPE
Assay [13] concerns the target T3, D(4) dopamine receptor (Homo sapiens) (UniProt P21917).
T3 sequence (whole entry): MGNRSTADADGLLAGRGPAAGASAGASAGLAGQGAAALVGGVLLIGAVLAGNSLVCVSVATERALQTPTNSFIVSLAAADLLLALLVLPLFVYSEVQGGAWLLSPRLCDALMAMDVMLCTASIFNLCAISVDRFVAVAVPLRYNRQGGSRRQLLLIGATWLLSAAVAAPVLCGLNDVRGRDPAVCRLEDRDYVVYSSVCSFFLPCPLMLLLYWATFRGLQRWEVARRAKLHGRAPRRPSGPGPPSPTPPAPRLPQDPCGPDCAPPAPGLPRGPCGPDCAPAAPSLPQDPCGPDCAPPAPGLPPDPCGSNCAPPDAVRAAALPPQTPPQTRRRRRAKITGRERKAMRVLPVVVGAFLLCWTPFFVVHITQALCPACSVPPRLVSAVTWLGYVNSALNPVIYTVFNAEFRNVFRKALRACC

Assay [14] concerns the target T4, 5-hydroxytryptamine receptor 2C (Homo sapiens) (UniProt P28335).
T4 sequence (whole entry): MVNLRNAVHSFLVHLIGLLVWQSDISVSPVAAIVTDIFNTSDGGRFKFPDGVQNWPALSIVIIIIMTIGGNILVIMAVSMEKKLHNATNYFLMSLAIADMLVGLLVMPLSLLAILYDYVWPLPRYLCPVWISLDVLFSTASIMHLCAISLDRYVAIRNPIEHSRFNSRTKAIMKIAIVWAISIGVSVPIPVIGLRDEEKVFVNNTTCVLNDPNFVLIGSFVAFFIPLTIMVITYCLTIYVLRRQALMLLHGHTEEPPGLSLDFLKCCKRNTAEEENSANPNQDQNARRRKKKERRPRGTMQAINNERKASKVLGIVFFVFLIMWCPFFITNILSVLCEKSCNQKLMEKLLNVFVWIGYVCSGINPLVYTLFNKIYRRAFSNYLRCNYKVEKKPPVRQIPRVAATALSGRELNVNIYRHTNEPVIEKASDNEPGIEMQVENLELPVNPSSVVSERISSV

Assay [15] has as its target T5, 5-hydroxytryptamine receptor 3A (Homo sapiens) (UniProt P46098).
T5 sequence (whole entry): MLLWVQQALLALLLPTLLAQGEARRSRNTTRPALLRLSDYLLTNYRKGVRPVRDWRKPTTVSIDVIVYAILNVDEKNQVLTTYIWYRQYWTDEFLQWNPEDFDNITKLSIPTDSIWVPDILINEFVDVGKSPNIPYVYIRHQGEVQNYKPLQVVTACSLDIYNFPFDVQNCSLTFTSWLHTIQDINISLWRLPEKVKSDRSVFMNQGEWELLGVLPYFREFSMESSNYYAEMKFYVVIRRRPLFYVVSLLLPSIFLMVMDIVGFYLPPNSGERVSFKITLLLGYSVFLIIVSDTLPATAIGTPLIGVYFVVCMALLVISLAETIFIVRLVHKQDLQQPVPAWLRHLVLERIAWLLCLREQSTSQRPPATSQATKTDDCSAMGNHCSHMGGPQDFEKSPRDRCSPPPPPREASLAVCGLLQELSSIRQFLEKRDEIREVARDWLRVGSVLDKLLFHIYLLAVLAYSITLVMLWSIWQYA

Sequence of 5-hydroxytryptamine receptor 2B (Homo sapiens) (P41595 whole entry): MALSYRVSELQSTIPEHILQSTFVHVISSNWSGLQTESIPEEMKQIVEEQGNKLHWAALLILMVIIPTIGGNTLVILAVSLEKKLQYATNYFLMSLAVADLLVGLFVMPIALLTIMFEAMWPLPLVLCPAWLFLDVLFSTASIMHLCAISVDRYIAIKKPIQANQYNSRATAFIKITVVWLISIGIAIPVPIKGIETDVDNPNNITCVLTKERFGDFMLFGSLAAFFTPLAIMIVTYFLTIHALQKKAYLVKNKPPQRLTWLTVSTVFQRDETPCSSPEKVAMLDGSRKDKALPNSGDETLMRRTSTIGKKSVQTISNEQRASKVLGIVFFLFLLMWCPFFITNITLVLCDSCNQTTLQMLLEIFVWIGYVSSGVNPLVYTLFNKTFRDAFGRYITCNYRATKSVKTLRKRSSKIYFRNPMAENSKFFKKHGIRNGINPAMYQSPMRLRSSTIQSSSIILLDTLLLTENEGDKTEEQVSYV
Sequence of Sigma intracellular receptor 2 (Homo sapiens) (Q5BJF2 whole entry): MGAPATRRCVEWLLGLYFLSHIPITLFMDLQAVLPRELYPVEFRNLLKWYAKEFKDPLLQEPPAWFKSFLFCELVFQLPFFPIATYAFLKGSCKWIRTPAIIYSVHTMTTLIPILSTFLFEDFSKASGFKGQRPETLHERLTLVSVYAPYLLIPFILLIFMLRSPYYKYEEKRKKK
Sequence of D(3) dopamine receptor (Homo sapiens) (P35462 whole entry): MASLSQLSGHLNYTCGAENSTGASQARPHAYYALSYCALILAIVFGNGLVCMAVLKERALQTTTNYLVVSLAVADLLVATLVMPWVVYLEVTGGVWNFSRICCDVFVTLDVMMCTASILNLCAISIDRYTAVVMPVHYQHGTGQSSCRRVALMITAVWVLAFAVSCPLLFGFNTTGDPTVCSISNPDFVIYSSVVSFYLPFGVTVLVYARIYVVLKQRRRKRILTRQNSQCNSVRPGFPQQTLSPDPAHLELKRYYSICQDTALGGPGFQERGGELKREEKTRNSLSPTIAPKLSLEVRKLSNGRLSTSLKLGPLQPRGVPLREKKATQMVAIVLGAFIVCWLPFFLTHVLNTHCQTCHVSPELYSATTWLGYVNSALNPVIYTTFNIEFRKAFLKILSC

In general, inhibition refers to the relative decrease from the control value, in per cent. As for `FC(F)(F)c1c(N2CCC(c3ccccc3)CC2)ccn2c(CC3CC3)nnc12`, the inhibition in assay [1] was 1.28%; in assay [2], -5.09%; in assay [3], 14.2%; in [4], 33%; in assay [5] it was -1.74%; in [6] it was -5.72%. Further, the inhibition in assay [7] was 21.9%; in assay [8] it was 44.4%; in [9], -9.2%; in assay [10], 10.5%; in assay [11], 22.9%; in assay [12], 36.9%.

For the compound `COc1ccc(CNC(=O)c2cc(-c3cncc(Cl)c3)cnc2-c2ccccn2)nc1OC`, the inhibition in [1] is 7.09%; in assay [2], -9.92%; in assay [3], 7.89%; in [13], -1.86%; in assay [4], 17.4%; in assay [5] it was 5.15%. In addition, the inhibition in assay [6] is -8.5%; in [7] it was 12.9%; in assay [8] it was 88.7%; in [9], -6.96%; in assay [10] it was 23.7%; in [11] it was 16.4%. In assay [12], the inhibition is 17.5%.

Consider `O=C1O[C@]2(CC[C@H](C(=O)Nc3ccn(-c4ccccc4F)n3)CC2)c2cnccc21`, for which the inhibition in assay [3] is 73.2%; in assay [4] it was 7.78%; in [6], 19.7%; in [7], 5.31%; in assay [8], 22.2%; in [9], 17.5%. For the same compound, the inhibition is 18.3% in [14], -6.46% in assay [10], -5.33% in assay [11] and 1.2% in assay [12].

In the case of `CC(C)(C(=O)O)c1ccc(C(O)CCCN2CCC(C(O)(c3ccccc3)c3ccccc3)CC2)cc1` (stereo not given), the inhibition in assay [1] was -7.6%; in [2] it was -5.98%; in assay [3] it was 53%; in [13], 19.6%; in assay [5], -8.03%; in assay [6], -5.94%. The inhibition in assay [7] was -8.04%; in assay [9] it was 67.8%; in [14] it was -8.36%; in assay [11], 39.2%; in assay [12], -4.11%.

On to `O=C(O)CC1CCC2(CC1)CCN(c1cc(OC(F)(F)F)ccc1Cl)CC2`, for which the inhibition in assay [1] is 0.13%; in assay [2] it was 0.58%; in assay [3], 65.5%; in assay [4], 31.1%; in assay [5], 9.28%; in assay [6], -1.2%. For the same compound, the inhibition was 16.8% in assay [7]; 26.1% in assay [8]; 13.1% in assay [14]; 10.9% in [10]; -1.25% in assay [11]; 7.83% in [12].

As for `CC1=C2C[C@H]3[C@@H](CC=C4C[C@@H](O)CC[C@@]43C)[C@@H]2CC[C@]12O[C@@H]1C[C@H](C)CN[C@H]1[C@H]2C`, the inhibition is 5.22% in assay [2]; 19.6% in assay [3]; 40.4% in assay [4]; -2.19% in assay [5]; 9.39% in assay [6]; 6.19% in assay [7]. Besides, the inhibition was 4.16% in assay [8], 1.76% in [10], 91.8% in [11] and 13.5% in [12].

Regarding `CCCNS(=O)(=O)Nc1ncnc(OCCOc2ncc(Br)cn2)c1-c1ccc(Br)cc1`, the inhibition in assay [1] was -8.41%; in assay [3] it was 54.8%; in assay [4], 11.5%; in assay [5] it was 8.98%; in [6], 9.06%; in assay [7] it was 42.3%. For the same compound, the inhibition is 42.8% in assay [8]; 4.95% in assay [14]; 1.8% in assay [10]; 30% in [11]; 51.2% in assay [12].

`CO[C@@H]1COCC[C@@H]1N[C@@H]1CC[C@@](C(=O)N2CCc3ncc(C(F)(F)F)cc3C2)(C(C)C)C1`: the inhibition in assay [1] is 3.2%; in assay [2], -6.91%; in assay [3], 33.7%; in assay [13] it was -3.53%; in assay [4], 25.1%; in [5], 2.39%. Besides, the inhibition in [6] was 19.6%; in [7], 9.5%; in assay [8], 4.71%; in assay [9] it was -6.19%; in assay [10], 25.9%; in [11], 67.9%. For the same compound, the inhibition in [12] is 11.4%.

With `CC(C)NC(=O)c1ccc(C#Cc2ccncc2)cn1`, the inhibition was -8.85% in assay [2]; 26.8% in [3]; -7.18% in assay [5]; -1.26% in assay [7]; 4.54% in assay [8]; 34.4% in assay [9]. The inhibition is -5.94% in assay [15], -1.6% in [10] and 8.09% in [11].

Turning to `O=C(O)COc1cccc(CN(Cc2ccc(-n3cccn3)cc2)S(=O)(=O)c2cccnc2)c1`, the inhibition in assay [1] is -2.57%; in assay [2], -8.36%; in assay [3], 5.78%; in assay [13], 4.77%; in assay [4], 1.83%; in assay [5] it was -9.76%. The inhibition in assay [6] was -0.9%; in assay [7], 14.9%; in assay [8], 15.6%; in assay [9], 5.26%; in [14], 29.9%; in assay [10], -1.11%. Moreover, the results for the inhibition in [11] and in [12] were 4.27% and 11.1%, respectively.
